Columns and labels:
Harlan athymic rats = test: Collagen disc implantation with Jab1-blockers and BMP-2 in rat ectopic model; format: in vivo; set-up: Average (Xray score): scale not given here; details: 100 ul, chest implant, 4 weeks
Excerpt: Harlan athymic rats about 5-6 weeks of age were chest implanted with a collagen disc and doses of G8 and R13 in combination with BMP-2. After 4 weeks the rats were sacrificed and evaluated for bone growth.

Mouse C2C12 cells = test: Alkaline phosphatase (ALP) assay, cell based screen of JAB1 blockers with BMP-2; details: cell based assay (FIG. 1-4)
Method: Mouse C2C12 cells and Dulbecco's modified Eagle's medium (DMEM) were purchased from ATCC (Manassas, VA). The non-heat inactivated fetal bovine serum (FBS) was purchased from HyClone Laboratories, Inc. (Logan, UT). The C2C12 cells at passages 4 to 7 were subcultured in T-75 cm2 flasks in DMEM supplemented with 10% FBS at 37° C. in 5% CO2 with humidification. When the flasks reached 80% confluence, the cells were trypsinized and seeded in triplicate at 200,000 cells/well in a 6-well plate for quantitative real-time RT-PCR and alkaline phosphatase (ALP) assays or at 50,000 cells/well in a 12-well plate for the dual-luciferase reporter assay.
The C2C12 cells were plated at 200,000 cells/well in 6-well plates and grown overnight in DMEM containing 10% FBS. On day 2, the culture medium was replaced with DMEM containing 2% FBS and the cells were treated with various concentrations of the JAB1-interacting compound for 24 hours. On day 3, the medium was replaced with fresh DMEM containing 2% FBS and the cells were treated with 50 ng/ml of BMP-2 for 72 hours. The cells were washed with phosphate-buffered saline (PBS) and lysed by addition of lysis buffer (10 mM Tris-HCl pH 8.0, 1 mM MgCl2 and 0.5% Triton X-100). The cell lysates were centrifuged for 5 minutes at 13,000×g. The supernatant was removed and the aliquots were assayed for ALP activity and protein amount. The ALP activity was measured in triplicate using an ALP assay kit (Sigma-Aldrich, St. Louis, MO) in microtiter plates. The protein amount was determined with Bio-Rad protein assay reagent (Bio-Rad, Hercules, CA) using bovine serum albumin (BSA) as a standard. The ALP activity (nmoles of p-nitrophenol per ml) was normalized to the protein amount (nmoles of p-nitrophenol per μg).

[1] = compound dose 2 mM + BMP-2 1.5 ug
[2] = compound dose 4 mM + BMP-2 1.5 ug
[3] = compound dose 6 mM + BMP-2 1.5 ug
[4] = compound dose 8 mM + BMP-2 1.5 ug
[5] = compound dose 11 mM + BMP-2 1.5 ug
[6] = compound dose 15 mM + BMP-2 1.5 ug
[7] = compound dose 19 mM + BMP-2 1.5 ug

In the case of `COc1cc2nccc(Oc3ccc(Br)c(C)c3)c2cc1OC` [#SRJ-G8, 4-(4-bromo-3-methylphenoxy)-6,7-dimethoxyquinoline], the “Average (Xray score)” value (Harlan athymic rats; [1]) is reported as 3.5, the “Results (bone made, n of 4)” value (Harlan athymic rats; [1]) is reported as “Bone made (4 of 4)” and the “Average (Xray score)” value (Harlan athymic rats; [2]) is reported as 3.75. The “Results (bone made, n of 4)” value (Harlan athymic rats; [2]) was “Bone made (4 of 4)”, the “Average (Xray score)” value (Harlan athymic rats; [3]) was 3 and the “Results (bone made, n of 4)” value (Harlan athymic rats; [3]) was “Bone made (3 of 4)”. For the same compound, the “Average (Xray score)” value (Harlan athymic rats; [4]) was 4, the “Results (bone made, n of 4)” value (Harlan athymic rats; [4]) was “Bone made (4 of 4)” and the “Average (Xray score)” value (Harlan athymic rats; [5]) was 1.25. The “Results (bone made, n of 4)” value (Harlan athymic rats; [5]) was “Bone made (1 of 4)”, the “Average (Xray score)” value (Harlan athymic rats; [6]) was 1.75 and the “Results (bone made, n of 4)” value (Harlan athymic rats; [6]) was “Bone made (2 of 4)”. The “Average (Xray score)” value (Harlan athymic rats; [7]) was 0.75, the “Results (bone made, n of 4)” value (Harlan athymic rats; [7]) was “Bone made (1 of 4)” and the ALP activity (Mouse C2C12 cells) was “improving ALP activity”.

`COc1cc(OC)c(C=C2C(=O)Nc3cc(Cl)ccc32)c(OC)c1` [#SRJ-R13, 6-chloro-3-(2,4,6-trimethoxybenzylidene)indolin-2-one] was tested, and the “Average (Xray score)” value (Harlan athymic rats; [1]) was 1.75, the “Results (bone made, n of 4)” value (Harlan athymic rats; [1]) was “Bone made (3 of 4)” and the “Average (Xray score)” value (Harlan athymic rats; [2]) was 2.25. The “Results (bone made, n of 4)” value (Harlan athymic rats; [2]) was “Bone made (4 of 4)”, the “Results (bone made, n of 4)” value (Harlan athymic rats; [3]) was “No bone (0 of 4)” and the “Results (bone made, n of 4)” value (Harlan athymic rats; [4]) was “No bone (0 of 4)”. The “Results (bone made, n of 4)” value (Harlan athymic rats; [5]) was “No bone (0 of 4)”, the “Results (bone made, n of 4)” value (Harlan athymic rats; [6]) was “No bone (0 of 4)” and the “Results (bone made, n of 4)” value (Harlan athymic rats; [7]) was “No bone (0 of 4)”. For the same compound, the ALP activity (Mouse C2C12 cells) was “improving ALP activity”.

For `COc1cc(Nc2nccc(Nc3ccc(F)cc3)n2)cc(OC)c1` [P5, N^2-(3,5-dimethoxyphenyl)-N^4-(4-fluorophenyl)pyrimidine-2,4-diamine], the ALP activity (Mouse C2C12 cells) was “improving ALP activity”.

Reference: patent US12377194B2, “JAB1 inhibitory compositions for ossification and methods related thereto” (Emory University, priority 2011, dated 2025)
